Data on four molecules can be found in patent EP2535414B1 (priority 2003, dated 2005).

Data set [1] addresses B. licheniformis strain B6 glyphosate-N-acetyltransferase (GAT), native, B6, SEQ ID NO:7 (Bacillus licheniformis, UniProt Q65LG7). The experiment in a line: Apparent KM for Acetyl CoA and kcat of purified GAT, mass spectrometric detection of N-acetyl glyphosate. Format: biochemical.
For data set [2], the target named is non-native GAT polypeptide 17-15H3 (SEQ ID NO:601), glyphosate-N-acetyltransferase (Bacillus licheniformis, UniProt Q65LG7). The experiment in a line: GAT activity with respect to glyphosate, aspartate and serine (Table 21), DTNB read-out. To be noted: AcCoA as acetyl donor, 25 mM Hepes, pH 6.8, 10% ethylene glycol. Format: biochemical. How it is done:
(§1) GAT activity of several GAT polypeptides of the disclosure was evaluated with respect to a number of amino acid substrates. The GAT polypeptide, AcCoA and amino substrate were incubated in 25 mM Hepes, pH 6.8, 10% ethylene glycol in the wells of a 96-well polystyrene plate. After 30 minutes, the reactions were stopped by the addition of 30 µl of 10 mM 5, 5'-dithiobis-2-nitrobenzoate (DTNB) in 500 mM Tris, pH 7.5. After 2 minutes, absorbance was read at 412 nm in a Spectramax Plus plate reader (Molecular Devices, Sunnyvale, CA).
(§2) Activity with the other protein amino acids was either undetected or less than 3% that of GAT activity towards glyphosate as the substrate. […] The percentages refer to percent activity relative to activity of the GAT polypeptide towards the substrate, glyphosate. Some of the data is shown below in Table 21. Table 21: GAT activity with respect to Glyphosate, Aspartate and Serine

Data set [3] deals with non-native GAT polypeptide 25-8H7 (SEQ ID NO:907), glyphosate-N-acetyltransferase (Bacillus licheniformis, UniProt Q65LG7). The data set is described as above. Conditions: AcCoA as acetyl donor, 25 mM Hepes, pH 6.8, 10% ethylene glycol. Format: biochemical. As for the experimental part:
as §1, §2

In data set [4] the target is native GAT polypeptide 401 (SEQ ID NO:6), glyphosate-N-acetyltransferase (Bacillus licheniformis, UniProt Q65LG7). The description is as above. Format: biochemical. To be noted: AcCoA as acetyl donor, 25 mM Hepes, pH 6.8, 10% ethylene glycol. As for the experimental part: as §1, §2
The target of data set [5] is GAT20-30C6 (SEQ ID NO:683) variant 20-30C6 H41A (Bacillus licheniformis, UniProt Q65LG7, form not given/H41A). The experiment in a line: GAT kinetics of active-site mutants, 0 KCl, Bradford protein assay (Table 12). Format: biochemical. As for the experimental part: (§3) KM was calculated from the initial reaction rates obtained from concentrations of glyphosate ranging from 0.125 to 10 mM, using the Lineweaver-Burke transformation of the Michaelis-Menten equation. kcat/KM was determined by dividing the value determined for kcat by the value determined for KM.
(§4) The amino acids aspartic acid (Asp, D), histidine (His, H) and cysteine (Cys, C) are known to be associated with the active sites of various acetyltransferase enzymes. To determine if any such residues play a role in GAT activity, all D, C, and H residues of GAT20-30C6 (SEQ ID NO:683) were individually mutated to alanine (Ala, A) and the mutated enzymes assayed for N-acetylglyphosate activity. […]

Data set [6] concerns the target GAT20-30C6 (SEQ ID NO:683), evolved glyphosate-N-acetyltransferase, unmodified (Bacillus licheniformis, UniProt Q65LG7). The data set is described as above. Format: biochemical. How it is done: as §3, §4
In data set [7] the target is GAT20-30C6 (SEQ ID NO:683) variant 20-30C6 H138S (Bacillus licheniformis, UniProt Q65LG7, form not given/H138S). The data set is described as above. Format: biochemical. How it is done:
as §3, §4

Data set [8] has as its system GAT20-30C6 (SEQ ID NO:683) variant 20-30C6 H138A. The data set is described as above. Format: biochemical. As for the experimental part:
as §3, §4

For data set [9], the target named is GAT20-30C6 (SEQ ID NO:683) variant 20-30C6 H138R (Bacillus licheniformis, UniProt Q65LG7, form not given/H138R). Described as above. Format: biochemical. How it is done: as §3, §4
Data set [10] deals with CC(=O)SCCNC(=O)CCNC(=O)[C@H](O)C(C)(C)COP(=O)(O)OP(=O)(O)OC[C@H]1O[C@@H](n2cnc3c(N)ncnc32)[C@H](O)[C@@H]1OP(=O)(O)O. The experiment in a line: purified protein, by the assay type. Conditions: other: 5 mM glyphosate, 0.19 µM GAT, 5 mM morpholine pH 7.7, 50% methanol.
Data set [11] has as its system O=C(O)CNCP(=O)(O)O. The data set is described as follows: Apparent KM for glyphosate of purified GAT, continuous spectrophotometric assay at 235 nm. Format: biochemical, B. licheniformis. Conditions: other: saturating (200 µM) Acetyl CoA, 1 µM purified GAT, 5 mM morpholine pH 7.7, 20 % ethylene glycol, 37.0 °C. The text has this:
Genomic DNA from B. licheniformis strain B6 was purified, partially digested with Sau3A1 and fragments of 1-10 Kb were cloned into an E. coli expression vector. A clone with a 2.5 kb insert conferred the glyphosate-N-acetyltransferase (GAT) activity on the E. coli host as determined with mass spectrometry analysis. […] Subsequent cloning of this open reading frame confirmed that it encoded the GAT enzyme. The gene encoding the GAT enzyme of B6 was transformed into E. coli strain XL1 Blue. A 10% innoculum of a saturated culture was added to Luria broth, and the culture was incubated at 37° C for 1 hr. Expression of GAT was induced by the addition of IPTG at a concentration of 1 mM. The culture was incubated a further 4 hrs, following which, cells were harvested by centrifugation and the cell pellet stored at -80°C.
Lysis of the cells was effected by the addition of 1 ml of the following buffer to 0.2 g of cells: 25 mM HEPES, pH 7.3, 100 mM KCl and 10% methanol (HKM) plus 0.1 mM EDTA, 1 mM DTT, 1 mg/ml chicken egg lysozyme, and a protease inhibitor cocktail obtained from Sigma and used according to the manufacturers recommendations. After 20 minutes incubation at room temperature (e.g., 22-25°C), lysis was completed with brief sonication. The lysate was centrifuged and the supernatant was desalted by passage through Sephadex G25 equilibrated with HKM. […]

Regarding `CC(=O)SCCNC(=O)CCNC(=O)[C@H](O)C(C)(C)COP(=O)(O)OP(=O)(O)OC[C@H]1O[C@@H](n2cnc3c(N)ncnc32)[C@H](O)[C@@H]1OP(=O)(O)O` [Acetyl CoA], the Michaelis constant (Km) in data set [1] (read-out: apparent KM for Acetyl CoA, 5 mM glyphosate, 0.19 µM GAT, 5 mM morpholine pH 7.7, 50% methanol) is around 2 µM.

Turning to `N[C@@H](CO)C(=O)O` [Serine, L-serine], the “kcat±SE” value is 242 + 15.8 min^-1 in [2], 6.47 ± 0.308 s⁻¹ in data set [3] and 14.2 s⁻¹ in data set [4].

Take `O=C(O)CNCP(=O)(O)O` [glyphosate, N-phosphonomethylglycine]: the catalytic constant (kcat) was 3.47 s⁻¹ in [5]; 6.43 s⁻¹ in data set [6]; 0.0892 s⁻¹ in [7]; below 0.00033 s⁻¹ in [8]; 0.738 s⁻¹ in data set [9]; 0.1 s⁻¹ in [1] (calculated from Vmax at a known concentration of enzyme, acetylation of glyphosate by Acetyl CoA). Also, the figures for the “kcat±SE” value in [2], in data set [3] and in data set [4] were 1150 ± 27.6 min⁻¹, 24.67 ± 1.09 s⁻¹ and 0.0892 ± 0.000717 s⁻¹, respectively.

In the case of “B. licheniformis strain B6 glyphosate-N-acetyltransferase (GAT), native, B6, SEQ ID NO:7 (Bacillus licheniformis DSM 13 = ATCC 14580)”, in data set [10], the Km turned out to be 2 µM. For the same molecule, in data set [11], the Km stood at 2900 ± 200 µM and the kcat worked out at 0.1 s⁻¹.

The term Km denotes the substrate concentration at which the rate is half of its maximum. Broadly, the kcat is the maximal rate divided by the concentration of active sites.
